In ChEMBL document CHEMBL1275264, “The GABA(A) receptor as a target for photochromic molecules” (Bioorg Med Chem, 2010):

What was measured:
[1] = molecular target: GABA A receptor alpha-4/beta-3/gamma-2 (Homo sapiens, UniProt P18507+P28472+P48169); assay: Binding affinity to human recombinant GABA alpha-4-beta-3-gamma-2 receptor; type: protein-complex assay
[2] = molecular target: T1, GABA-A receptor; alpha-5/beta-3/gamma-2 (Homo sapiens, UniProt P18507+P28472+P31644); assay: Binding affinity to human recombinant GABA alpha-5-beta-3-gamma-2 receptor; type: protein-complex assay
T1 sequence (P18507 whole entry): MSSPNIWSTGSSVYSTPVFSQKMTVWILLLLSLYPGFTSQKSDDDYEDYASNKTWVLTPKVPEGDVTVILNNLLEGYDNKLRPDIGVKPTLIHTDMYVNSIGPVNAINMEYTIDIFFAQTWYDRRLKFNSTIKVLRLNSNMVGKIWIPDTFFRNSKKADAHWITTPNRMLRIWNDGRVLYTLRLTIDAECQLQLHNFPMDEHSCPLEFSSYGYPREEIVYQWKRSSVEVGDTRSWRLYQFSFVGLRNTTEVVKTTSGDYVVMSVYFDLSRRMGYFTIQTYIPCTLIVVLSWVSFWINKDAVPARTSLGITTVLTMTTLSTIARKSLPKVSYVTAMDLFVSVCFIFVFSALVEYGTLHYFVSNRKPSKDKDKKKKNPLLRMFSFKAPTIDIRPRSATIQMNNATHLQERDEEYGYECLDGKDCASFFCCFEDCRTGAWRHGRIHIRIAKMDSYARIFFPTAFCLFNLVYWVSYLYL
T1 sequence (P28472 whole entry): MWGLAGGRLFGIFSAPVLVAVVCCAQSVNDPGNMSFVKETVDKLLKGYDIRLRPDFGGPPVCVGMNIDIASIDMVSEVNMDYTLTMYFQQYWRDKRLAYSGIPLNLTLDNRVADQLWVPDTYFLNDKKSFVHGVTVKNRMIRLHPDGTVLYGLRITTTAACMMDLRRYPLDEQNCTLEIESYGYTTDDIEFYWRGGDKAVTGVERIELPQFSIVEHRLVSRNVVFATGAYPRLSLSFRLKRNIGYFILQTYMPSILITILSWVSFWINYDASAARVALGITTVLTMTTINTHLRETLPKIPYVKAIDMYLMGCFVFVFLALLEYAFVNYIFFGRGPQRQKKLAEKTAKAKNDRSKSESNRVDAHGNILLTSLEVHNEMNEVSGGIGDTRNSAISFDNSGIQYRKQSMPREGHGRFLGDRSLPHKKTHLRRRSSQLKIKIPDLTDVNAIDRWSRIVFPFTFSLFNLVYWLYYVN
T1 sequence (P31644 whole entry): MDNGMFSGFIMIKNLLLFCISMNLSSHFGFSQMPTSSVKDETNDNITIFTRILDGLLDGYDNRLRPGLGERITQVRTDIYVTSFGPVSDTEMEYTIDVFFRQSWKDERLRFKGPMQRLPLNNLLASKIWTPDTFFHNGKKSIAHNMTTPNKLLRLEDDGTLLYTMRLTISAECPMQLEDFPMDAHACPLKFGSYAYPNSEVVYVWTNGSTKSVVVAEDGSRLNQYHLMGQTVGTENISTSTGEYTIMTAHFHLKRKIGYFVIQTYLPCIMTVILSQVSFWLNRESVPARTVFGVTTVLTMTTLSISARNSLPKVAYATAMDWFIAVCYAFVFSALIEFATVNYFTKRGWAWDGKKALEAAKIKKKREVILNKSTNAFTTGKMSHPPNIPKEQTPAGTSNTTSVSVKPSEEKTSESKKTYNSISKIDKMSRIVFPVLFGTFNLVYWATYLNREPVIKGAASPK

Chain of GABA A receptor alpha-4/beta-3/gamma-2 (P48169 whole entry, one chain of several): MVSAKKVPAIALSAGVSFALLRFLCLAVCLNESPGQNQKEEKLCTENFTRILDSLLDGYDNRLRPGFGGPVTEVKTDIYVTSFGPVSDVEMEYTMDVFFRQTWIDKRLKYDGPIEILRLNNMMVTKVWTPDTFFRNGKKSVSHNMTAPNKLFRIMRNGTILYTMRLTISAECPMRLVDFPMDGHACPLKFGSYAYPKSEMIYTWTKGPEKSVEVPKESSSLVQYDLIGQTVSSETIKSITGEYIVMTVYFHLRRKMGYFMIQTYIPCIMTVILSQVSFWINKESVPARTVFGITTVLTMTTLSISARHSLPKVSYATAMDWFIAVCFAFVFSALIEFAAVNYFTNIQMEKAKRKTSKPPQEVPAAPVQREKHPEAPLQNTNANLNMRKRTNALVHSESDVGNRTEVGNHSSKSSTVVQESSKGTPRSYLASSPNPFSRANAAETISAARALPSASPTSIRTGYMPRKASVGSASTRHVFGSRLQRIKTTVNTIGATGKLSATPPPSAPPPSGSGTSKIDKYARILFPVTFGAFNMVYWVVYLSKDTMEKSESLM

Row | Compound | Ki [1] [nM] | Ki [2] [nM]
1 | CC(=O)c1ncn2c1CN(C)C(=O)c1cc(Cl)ccc1-2 | 2610 | 29500
2 | COCc1ncn2c1CN(C)C(=O)c1cc(Cl)ccc1-2 | 38.8 | > 300
